# From patent publication US20120258938A1, “Enzymatic Production or Chemical Synthesis and Uses for 5,7-Dienes and UVB Conversion Products Thereof” (priority 2008, published 2012)
# Legend:
# Col1A1 mRNA = assay: Real time RT PCR Col1A1 mRNA, TGF-b1 stimulated skin fibroblasts; format: cell-based; details: human skin fibroblasts
# Procedure: Additional studies using human skin fibroblasts were performed employing a type I collagen specific ELISA Chondrex, and real time RT PCR to quantitate type I collagen protein and Col1A1 mRNA expression in culture of human fibroblast stimulated by TGF-b1 in the presence and absence of 17,20S(OH)2pD3 and/or 20(OH)D3. These studies confirmed that Type I collagen protein production that was induced by TGF-b1 and that Col1A1 mRNA that was induced by TGF-b1 were suppressed by these analogues (FIGS. 44A-44B).
# HaCaT keratinocytes [1] = assay: Colony forming (clonogenicity) assay in HaCaT keratinocytes; format: cell-based, human; details: 10^−8 M, 10 days
# Procedure: HaCaT and human adult epidermal keratinocytes were cultured and DNA synthesis experiments were performed as described previously (26). Cells were plated in 6-well plates at a density of 20 cells/cm^2 in DMEM (Cellgro, Herndon Va.) containing 5% charcoal-treated fetal bovine serum (Hyclone, Logan, Utah), 1% antibiotic solution (PSA, Sigma, St. Louis, […].) and vehicle or secosteroids. Cells were incubated in 37° C. for 10 days with media being changed every 72 hr. Cells were fixed with 4% paraformaldehyde in PBS overnight, stained with 0.5% crystal violet in PBS for 15 min, rinsed and air-dried. The number and size of the colonies were measured using an ARTEK counter 880 (Dynex Technologies Inc., Chantilly, Va.). Colony forming units were calculated as follows: number of colonies (size>0.5 mm) was divided by the number of cells plated and multiplied by 100.
# involucrin [2] = assay: Real-time RT PCR involucrin mRNA, normal human epidermal keratinocytes; format: cell-based; details: 10^−8 M, 6 h
# Procedure: (§1) RNA was extracted using an Absolutely RNA RT-PCR Miniprep Kit (Stratagene, La Jolla, Calif.). Real time PCR and reverse transcription products were purchased from Applied Biosystems, Foster City, Calif. Reverse transcription was performed using Taqman® Reverse Transcription Reagents. The following PCR products were used: cytokeratin 14: Hs00265033_m1, involucrin: Hs00846307_s1, CYP27A1: Hs00168003_ml, CYP27B1: Hs00168017_ml, 18SrRNA: Hs99999901_s1. The reaction was performed with Taqman® Universal PCR Master Mix; data were collected on an ABI Prism 7700 and analyzed on Sequence Detector 1.9.1. Specific gene amounts were related to 18SrRNA by comparative CT method.
# involucrin [3] = assay: Involucrin protein expression in HaCaT (flow cytometry, microscopy); format: cell-based, human; details: 10^−8 M, 24 h, flow cytometry
# HaCaT keratinocytes [4] = assay: Forward and side scatter (cell size, granularity) of HaCaT keratinocytes; format: cell-based, human; details: HaCaT; 20-hydroxycholecalciferol at 0.1 nM
# Procedure: The FL-1 signal (collected from 10,000 events in side scatter/forward scatter window after debris exclusion) was recorded. Forward (relative to cell size) and side (relative to cell granularity) scatter histograms were generated and mean signal intensity was recorded. FL-1 signal values are presented as dMFI (difference between mean fluorescence intensity of sample stained with specific and isotype control antibody). Scatter signal values are presented as MSI (mean signal intensity). Signal intensities were analyzed with Cell Quest (BD Biosciences, San Diego, Calif.) and graphical representations of the FL-1 signal were prepared with WinMdi 2.8 (shareware from Joseph Trotter, The Scripps Research Institute, San Diego, Calif.).
# CYP27B1 = assay: Real-time RT PCR CYP27B1 mRNA, normal epidermal keratinocytes; format: cell-based, human; details: 10^−8 M, 1 h
# Procedure: as §1
# CYP27A1 [5] = assay: Real-time RT PCR CYP27A1 mRNA, normal epidermal keratinocytes; format: cell-based, human; details: 10^−8 M, 24 h
# Procedure: as §1
# CYP24 promoter = assay: CYP24-Luc reporter in normal epidermal keratinocytes; format: cell-based, human; details: 24 h
# Source text: The CYP24-Luc construct was a generous gift from Dr Tai Cheng (Boston University Medical Campus, Core Lab Director). It was originally developed by Vaisanen et al. (27). The details of the pLuc construct have been described previously (28-29). Normal epidermal keratinocytes were transfected using Lipofectamine Plus (Invitrogen, Carlsbad, Calif.) in Epilife medium with firefly luciferase reporter gene plasmid and with phRL-TK (expresses Renilla luciferase and serves as normalization control; Promega, Madison, Wis.). After transfection, cells were incubated for 24 hours in EpiLife medium with HKGS. Cells were then transferred to fresh media containing the compounds to be tested or vehicle (ethanol) and incubated for 24 hours. The firefly luciferase and Renilla luciferase signals were recorded with a TD-20/20 luminometer (Turner Designs, Sunnyvale, Calif.); background luminescence was subtracted and the resulting promoter-specific firefly signal was divided by the Renilla signal (proportional to the number of transfected cells). The values obtained were divided by the mean of control (untreated) cells.
# rat CYP24 = target: T1, rat CYP24 (Rattus norvegicus, UniProt Q09128); assay: Metabolism by rat CYP24 in phospholipid vesicles
# T1 sequence (Q09128 36-514): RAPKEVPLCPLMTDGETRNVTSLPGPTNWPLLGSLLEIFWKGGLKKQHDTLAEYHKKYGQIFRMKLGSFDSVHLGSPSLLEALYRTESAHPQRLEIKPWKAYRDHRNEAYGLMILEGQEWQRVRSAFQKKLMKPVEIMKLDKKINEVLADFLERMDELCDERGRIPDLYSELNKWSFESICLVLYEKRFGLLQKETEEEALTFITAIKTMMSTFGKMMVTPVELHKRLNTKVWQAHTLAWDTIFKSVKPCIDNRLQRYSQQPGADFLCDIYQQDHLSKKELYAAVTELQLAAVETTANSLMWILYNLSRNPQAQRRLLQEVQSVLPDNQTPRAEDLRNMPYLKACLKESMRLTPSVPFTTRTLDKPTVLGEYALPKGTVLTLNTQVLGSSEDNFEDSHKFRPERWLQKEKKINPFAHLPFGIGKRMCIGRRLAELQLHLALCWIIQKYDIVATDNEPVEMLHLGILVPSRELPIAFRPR
# Procedure: Samples (typically 0.25-1.0 mL) were incubated at 37° C., with shaking, then reactions terminated by the addition of 2.5 mL ice-cold dichloromethane and vortexing. After phase separation aided by centrifugation, the lower organic phase was retained and the upper aqueous phase was extracted twice more with 2.5 mL aliquots of dichloromethane. The dichloromethane was removed under nitrogen and the residual sample dissolved in solvent for HPLC analysis.
# (§2) To test enzymatic metabolism of 20S(OH)D3 and 20R(OH)D3, the substrates were incorporated into phospholipid vesicles with the ratio of substrate to phospholipid being 0.025 mol/mol phospholipid. Vesicles were incubated with 2 μM bovine CYP11A1 or 0.06 μM human CYP27B1 for up to 10 min. To test enzymatic metabolism of 20(OH)D3 in CYP24, the substrate was incorporated into phospholipids vesicles with 0.15-0.5 μM CYP24. To test enzymatic metabolism of 20(OH)D3 in CYP27A1, purified CYP27A1 was preincubated with the vesicles for 6 min at 37° C. Adrenodoxin was added last to initiate the reaction. For kinetic experiments, the incubations were typically 0.5 mL and were carried out over the initial linear period of the reaction (10 min for vitamin D3 and cholesterol and 30 min for 20(OH)D3).
# cytochrome P450scc = target: T2, cytochrome P450scc (Bos taurus, UniProt P00189); assay: Metabolism by cytochrome P450scc in cyclodextrin; details: substrate in 0.45% cyclodextrin
# T2 sequence (P00189 40-520): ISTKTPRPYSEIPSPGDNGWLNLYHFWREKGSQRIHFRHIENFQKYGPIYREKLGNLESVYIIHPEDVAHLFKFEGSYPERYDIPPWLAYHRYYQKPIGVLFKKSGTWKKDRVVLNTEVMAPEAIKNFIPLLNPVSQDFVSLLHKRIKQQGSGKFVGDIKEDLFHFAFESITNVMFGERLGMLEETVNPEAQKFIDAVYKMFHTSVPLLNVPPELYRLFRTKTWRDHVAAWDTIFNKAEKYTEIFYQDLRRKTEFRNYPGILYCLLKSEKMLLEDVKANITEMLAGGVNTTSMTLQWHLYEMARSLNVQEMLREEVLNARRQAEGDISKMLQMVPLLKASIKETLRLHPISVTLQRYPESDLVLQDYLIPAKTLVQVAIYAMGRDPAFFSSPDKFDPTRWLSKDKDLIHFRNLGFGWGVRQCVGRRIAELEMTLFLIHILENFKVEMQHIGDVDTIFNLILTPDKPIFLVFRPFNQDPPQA
# Procedure: Adrenodoxin was expressed in Escherichia coli and purified as described before (41). […] Metabolites were analysed using a Perkin Elmer HPLC equipped with a C18 column (Brownlee Aquapore, 22 cm×4.6 mm, particle size 7 μm).
# CYP27A1 [6] = target: T3, CYP27A1 (Homo sapiens, UniProt Q02318); assay: Metabolism by CYP27A1 (cyclodextrin or phospholipid vesicles); details: cyclodextrin
# T3 sequence (Q02318 34-531): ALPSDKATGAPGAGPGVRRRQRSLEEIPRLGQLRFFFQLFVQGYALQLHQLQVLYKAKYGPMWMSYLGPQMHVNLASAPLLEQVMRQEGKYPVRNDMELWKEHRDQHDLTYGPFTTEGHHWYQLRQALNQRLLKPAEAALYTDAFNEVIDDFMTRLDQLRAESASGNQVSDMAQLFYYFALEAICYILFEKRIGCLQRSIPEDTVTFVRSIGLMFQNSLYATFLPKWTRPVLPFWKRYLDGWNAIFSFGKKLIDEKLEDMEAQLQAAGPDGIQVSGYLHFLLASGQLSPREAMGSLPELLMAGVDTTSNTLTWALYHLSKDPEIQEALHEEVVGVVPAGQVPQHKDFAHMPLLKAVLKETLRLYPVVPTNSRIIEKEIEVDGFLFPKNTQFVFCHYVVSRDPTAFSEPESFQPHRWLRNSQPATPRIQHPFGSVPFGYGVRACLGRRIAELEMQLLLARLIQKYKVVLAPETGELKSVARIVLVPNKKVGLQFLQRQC
# Procedure: as §2
# Kinetic characterization of the metabolism of 20(OH)D3 by CYP27A1 was carried out with substrate dissolved in either cyclodextrin or phospholipid vesicle. Vitamin D3 and 20(OH)D3 were incubated with 0.4 μM CYP27A1 and 1 μM CYP27A1, respectively, for 10 and 30 min. The products were analyzed by reverse phase HPLC. The hyperbolic curves were fitted using the equation v/[E]=(kcat—[S])/(Km+[S]) where v is reaction velocity, [E] is the CYP27A1 concentration, and [S] the substrate concentration.
smiles,measurement,setting,value
"C=C1CCC(O)CC1=CC=C1CCCC2(C)C1CCC2(O)C(C)O [17,20Rdi(OH)pD, (5Z,7E)-(20R)-9,10-secopregna-5,7,10(19)-triene-3β,17α,20-triol]",TGF-b1 induced Col1A1 mRNA,Col1A1 mRNA,reduce TGF-β1 induced Col1A1 mRNA
"C=C1CC[C@H](O)C/C1=C/C=C1\CCC[C@]2(C)[C@@H]([C@H](C)CCCC(C)(C)O)CC[C@@H]12 [25-hydroxycholecalciferol, (5Z,7E)-9,10-secocholesta-5,7,10(19)-triene-3β,25-diol, reference compound]",inhibition of colony formation,HaCaT keratinocytes [1],no significant effect
same,stimulation of involucrin mRNA,involucrin [2],~2.1 fold
same,increase in the expression of involucrin,involucrin [3],negligible
same,"forward scatter, mean signal intensity (MSI)",HaCaT keratinocytes [4],254±0.06
same,increase of CYP27B1 expression,CYP27B1,~1.3 fold
same,inhibition of CYP27A1 expression,CYP27A1 [5],~1.9 fold
same,stimulation of transcriptional activity of the CYP24 promoter,CYP24 promoter,~12 fold
same,Km,rat CYP24,0.0080±0.0016 mol substrate/mol phospholipid
same,kcat,rat CYP24; phospholipid vesicles,52.6±2.9 mol/min/mol CYP24
same,"kcat higher than that for 1,25(OH)2D3",rat CYP24; phospholipid vesicles,3.8 fold
"C=C1CC[C@H](O)C/C1=C/C=C1\CCC[C@]2(C)[C@@H]([C@H](C)CCCC(C)C)CC[C@@H]12 [cholecalciferol, (5Z,7E)-9,10-secocholesta-5,7,10(19)-triene-3β-ol, reference compound]",kcat,cytochrome P450scc,19.7±0.9 mol/min P450scc
same,kcat,CYP27A1 [6],0.0283 ± 0.00233 s⁻¹
